In brackets after ≈: the same amount, converted by molar mass.

Assay [1] deals with human umbilical venous endothelial cells. Description: Inhibition of proliferation of human umbilical venous endothelial cells (MTT). The format is cell-based. The conditions noted are these: Endothelial cell, 72 h, rFGF 2 ng/ml, 3 days of incubation, OD₅₉₀, read-out: IC₅₀. How it is done:
Experiment 3 [Evaluation of inhibition of proliferation of human umbilical venous endothelial cells]
The human vascular endothelial cells were obtained by subculture of the cells, which had been obtained from human umbilical vein by perfusion with tripsin solution, in the culture medium which had been prepared by addition of 2.5% bovine fetal serum and 2.0 ng/ml of human recombinant fibroblast growth factor (abbreviated as rFGF hereinafter; prepared in Biotechnology Institute of our company) to GIT medium (Daigo Eiyou Kagaku).
A hundred µl of the suspension of 2 x 10³ human vascular endothelial cells was introduced to a 96-well culture plate (Nunc, 1-67008) and incubated in a gas-controlled thermostat. On the next day rFGF and 100 µl of a medium containing different concentrations of the test substance were added, so that the final concentration of rFGF might be 2 ng/ml. The test substance was dissolved in dimethylsufoxide (DMSO hereinafter) solution, and the resultant solution was diluted so that the final DMSO concentration might be 0.25% or less. After 3 days of incubation, the culture medium containing the test substance was aspirated off, 100 µl of 1 mg/ml MTT solution (3-(4,5-dimethyl-2-thiazolyl)-2,5-diphenyl-2H-tetrazolium bromide dissolved in the culture medium) was added, and the mixture was kept warm for 4 hours. Then 100 µl of 10% SDS solution (aqueous solution of sodium dodecylsulfate) was added and kept warm for 5 - 6 hours, so that the cells and MTT pigment were solubilized, and the OD₅₉₀ value was determined by spectrophotometer. The OD value of the control sample containing no test substance was taken as 100%, and the endothelial cell growth-inhibitory activity of the test substance was compared on the basis of the IC₅₀ value, the concentration of a compound at which 50% OD value is observed.

Assay [2] relates to IL-2-dependent cells (NKC-3). Briefly: Inhibition of growth of IL-2-dependent cells (NKC-3) (MTT). It counts as cell-based. The conditions noted are these: NKC-3 cells with IL-2, 37°C for 20 hours, absorbance at 590 nm, read-out: IC₅₀. The protocol: Experiment 4 [Evaluation of inhibition of growth of IL-2-dependent cells (NKC-3)]
To each well of a 96-well microplate, 50 µl of NKC-3 cells (4 x 10⁵ cells/well), 20 µl of IL-2 solution (0.067 U/ml), and 40 µl of the test substance (DMSO solution) were added, which was incubated at 37°C for 20 hours (culture medium: RPMI1640-20%ECS). To each well 20 µl of MTT solution was added,which was kept at 37°C for 4 hours. Then 100 µl of 10% SDS solution was added to each well, which was kept still at 37°C overnight so that the cells and MTT pigment were solubilized, and the absorbance at 590 nm was measured by spectrophotometer. […] Compound No. IC₅₀ (M) 5 4.1 x 10⁻⁵

Assay [3] concerns the target T1, 5-lipoxygenase from guinea pig polymorphonuclear leukocytes (Cavia porcellus, UniProt A0A286X958).
T1 construct: from guinea pig peritoneal macrophage; from tissue
T1 sequence (A0A286X958 1-674): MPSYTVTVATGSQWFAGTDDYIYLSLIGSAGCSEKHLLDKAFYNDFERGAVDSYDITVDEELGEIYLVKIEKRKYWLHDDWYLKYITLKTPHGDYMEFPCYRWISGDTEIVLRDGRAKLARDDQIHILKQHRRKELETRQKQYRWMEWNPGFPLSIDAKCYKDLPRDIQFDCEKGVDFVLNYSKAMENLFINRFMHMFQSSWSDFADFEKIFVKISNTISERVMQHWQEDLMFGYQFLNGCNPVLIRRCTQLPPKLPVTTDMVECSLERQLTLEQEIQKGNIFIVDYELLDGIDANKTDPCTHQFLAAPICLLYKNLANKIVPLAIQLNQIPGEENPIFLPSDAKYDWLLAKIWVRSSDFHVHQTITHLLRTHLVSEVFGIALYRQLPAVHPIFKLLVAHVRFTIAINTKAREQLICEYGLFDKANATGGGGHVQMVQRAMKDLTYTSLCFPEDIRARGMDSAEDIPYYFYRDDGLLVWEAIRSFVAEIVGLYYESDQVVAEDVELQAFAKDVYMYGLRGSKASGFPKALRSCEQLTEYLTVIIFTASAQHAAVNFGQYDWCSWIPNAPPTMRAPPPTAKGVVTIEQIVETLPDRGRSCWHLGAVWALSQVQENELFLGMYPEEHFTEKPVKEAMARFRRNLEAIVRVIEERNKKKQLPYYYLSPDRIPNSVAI
Briefly: Inhibition of 5-lipoxygenase. The format is biochemical. The conditions noted are these: 10⁻⁵ M; 25µM [1-¹⁴C]arachidonic acid as substrate, 25°C. The protocol: According to the routine method these ingredients were mixed and compressed by a tableting machine. Experiment 1 [Inhibition (10⁻⁵ M) of 5-lipoxygenase from guinea pig polymorphonuclear leukocytes]
5-Lipoxygenase used was the enzyme preparation prepared from guinea pig […]. For determination of the activity of lypoxygenase 25µM [1-¹⁴C]arachidonic acid (5 x 10⁴ cpm) as the substrate, 50 mM phosphate buffer solution (pH 7.4), 2 mM CaCl₂, 2 mM ATP, and a reaction mixture containing the enzyme (200µl) were used. After preincubation at 25°C for 2 minutes, [1-¹⁴C]arachidonic acid (5 x 10⁴ cpm) was added, and allowed to react at 25°C for 3 minutes; the resultant mixture was made acidic, and arachidonic acid and its metabolites were extracted with ether. Radioactivity of the ether layer was determined by silica gel thin layer chromatography using a mixture of petroleum ether:ethylether:acetic acid (15:85:0.1) as the eluant and the elution was performed at -10°C. After elution, the thin layer plate was subjected to autoradiography, the radioactive fractions were scraped out, and the radioactivity of the product was determined by counting. The agent was added two minutes before the beginning of the reaction.

For the compound `CC1=C(C)C(=O)C(C(CCC(=O)NO)c2ccccc2)=C(C)C1=O` (stereo not shown) [Compound No.1], the IC50 in assay [1] was 10 µg/mL (≈ 30.5 µM). Consider `CC1=C(C)C(=O)C(C(CCCCCC(=O)NO)c2ccccc2)=C(C)C1=O` (stereo not shown) [Compound No.5], for which the IC50 in assay [2] is 41 µM; in assay [1] it was 0.63 µg/mL (≈ 1.71 µM). Moreover, the “Inhibitory activity (%)” value in assay [3] was 74.6%. Consider `CC1=C(C)C(=O)C(C(CCCCCC(=O)NO)c2ccc(F)cc2)=C(C)C1=O` (stereo not shown) [Compound No.6, 7-(4-fluorophenyl)-7-(3,5,6-trimethyl-1,4-benzoquinon-2-yl)-heptanohydroxamic acid], for which the IC50 in assay [1] is 1.25 µg/mL (≈ 3.23 µM). Besides, the “Inhibitory activity (%)” value in assay [3] came to 79.3%. In the same order, the values of `COc1ccc(C(CCCCCC(=O)NO)C2=C(C)C(=O)C(C)=C(C)C2=O)cc1` (stereo not shown) [Compound No.8, 7-(4-methoxyphenyl)-7-(3,5,6-trimethyl-1,4-benzoquinon-2-yl)-heptanohydroxamic acid] are 0.63 µg/mL (≈ 1.58 µM) and 83.8%.

For the compound `CC1=C(C(CCCCC(=O)NO)c2cccs2)C(=O)c2ccccc2C1=O` (stereo not shown) [Compound No.13], the IC50 in assay [1] was below 0.08 µg/mL. As to `CC1=C(C)C(=O)C(C(CCCCC(=O)NO)c2ccccc2)=C(C)C1=O` (stereo not shown) [compound 2], in assay [1], the IC50 is 0.63 µg/mL (≈ 1.77 µM). Same read-out and setting: the result for `CC1=C(C)C(=O)C(C(CCCCC(=O)NO)c2ccc(F)cc2)=C(C)C1=O` (stereo not shown) [compound 3] reads 1.25 µg/mL (≈ 3.35 µM); that for `COc1ccc(C(CCCCC(=O)NO)C2=C(C)C(=O)C(C)=C(C)C2=O)cc1` (stereo not shown) [compound 4], 0.63 µg/mL (≈ 1.63 µM); that for `CC1=C(C)C(=O)C(C(CCCCCC(=O)NO)c2ccc(C)cc2)=C(C)C1=O` (stereo not shown) [compound 7], 1.25 µg/mL (≈ 3.26 µM). For `CC1=C(C)C(=O)C(C(CCCCCC(=O)NO)c2ccc(Cl)cc2)=C(C)C1=O` (stereo not shown) [compound 9], the IC50 in assay [1] amounted to 1.25 µg/mL (≈ 3.09 µM).

As to `CC1=C(C)C(=O)C(C(CCCCCCC(=O)NO)c2ccccc2)=C(C)C1=O` (stereo not shown) [compound 10], the IC50 in assay [1] turned out to be 25 µg/mL (≈ 65.2 µM). With `CC1=C(C(CCCC(=O)NO)c2ccccc2)C(=O)c2ccccc2C1=O` (stereo not shown) [compound 11], the IC50 in assay [1] was 5 µg/mL (≈ 13.8 µM). Still for that read-out and setting: the result for `CC1=C(C(CCCCC(=O)NO)c2ccccc2)C(=O)c2ccccc2C1=O` (stereo not shown) [compound 12] reads 0.08 µg/mL (≈ 0.212 µM). For `CC1=C(C(CCCCCC(=O)NO)c2ccc(F)cc2)C(=O)c2ccccc2C1=O` (stereo not shown) [compound 14], in assay [1], the IC50 was below 0.63 µg/mL. Also, the “Inhibitory activity (%)” value in assay [3] is 89.7%. As to `CC1=C(C(CCCCCCC(=O)NO)c2ccccc2)C(=O)c2ccccc2C1=O` (stereo not shown) [compound 15], in assay [1], the IC50 is below 0.63 µg/mL. Turning to `COC1=C(OC)C(=O)C(C(CCCCCC(=O)NO)c2ccccc2)=C(C)C1=O` (stereo not shown) [compound 16], in assay [1], the IC50 was determined as 1.25 µg/mL (≈ 3.11 µM). Same read-out and setting: the result for `COC1=C(OC)C(=O)C(C(CCCC(=O)NO)c2ccccc2)=C(C)C1=O` (stereo not shown) [compound 17] reads 20 µg/mL (≈ 53.6 µM).

Source of the values: patent EP0301861A1, “Cell proliferation inhibitors” (Takeda Chemical Industries, Ltd., priority 1987, dated 1989).
